Source: patent publication US20160095861A1, “OPHTHALMIC OINTMENTS COMPRISING VALGANCICLOVIR HYDROCHLORIDE FOR TREATING INFECTIVE EYE DISEASES” (SKIRON BIOSCIENCES, priority 2014, published 2016)
Counter-ions that a name gives are not always drawn.

Legend:
[1] = system: CMV-induced inflammation in the eye; test: Valganciclovir hydrochloride ophthalmic ointments tested in a patient with CMV-induced inflammation in the eye (Example 4); format: in vivo, human; settings: topical ophthalmic ointment, 1% w/w and 5% w/w, one patient
Protocol: The 1% w/w and 5% w/w valganciclovir hydrochloride ophthalmic ointments were tested in a patient with CMV-induced inflammation in the eye.

[2] = system: hypertensive anterior uveitis associated with clinical signs of cytomegalovirus (CMV) iritis; test: Case report: topical valganciclovir for hypertensive anterior uveitis with clinical signs of CMV iritis (Example 5); format: in vivo, human
Protocol: Valganciclovir was extracted from the tablet form (450 mg, Valcyte, Roche). Briefly, tablets were dissolved in 0.001N HCl (2 ml per tablet), the insoluble excipients were isolated by centrifugation at 16,000 g, the solution was then filtered through 0.2 μm filter into ice-cold isopropanol (20 ml per tablet) leading to precipitation of the valganciclovir. The precipitate was spun down at 3,000 g, isopropanol was decanted and remaining volatile solvents were removed in the lyophilizer. The identity of valganciclovir was confirmed by liquid chromatography-mass spectrometry (LC-MS). 1% (w/w) valganciclovir ointment in the oleaginous base (20% mineral oil and 80% white petrolatum) was made by following standard compounding practices.
The patient was referred to us […] with chronic low-grade iritis and IOPs that were not adequately managed with medications (prednisolone acetate, brimonidine, and dorzolamide/timolol). Based on the history, pattern of keratic precipitates, mild anterior chamber inflammation, iris atrophy and elevated IOP (25 mmHg in the right eye and 16 mmHg in the left eye) CMV iritis was suspected. […]. PCR of the aqueous was negative for CMV, herpes simplex virus (HSV), and varicella-zoster virus (VZV) DNA.^6 However, because we had previously observed false negative PCR results in a substantial proportion of eyes suspected to have CMV iritis on clinical grounds, we decided to start a course of oral valganciclovir (900 mg twice daily). Within six weeks their IOP returned to normal levels and after 3 months all keratic precipitates completely resolved.
Nine months after the start of valganciclovir therapy, valganciclovir was discontinued and twice daily ganciclovir gel, 0.15%, was started. […] The patient refused to restart oral valganciclovir due to concerns about the toxicity of systemic valganciclovir, and continued with ganciclovir gel, topical corticosteroids, and topical anti-hypertensives.
At this same time, the patient began treating their condition with self-compounded topical valganciclovir. They initially wore a contact lens soaked overnight in 5% valganciclovir and later formulated 5% valganciclovir eye drops, which they administered 2-4 times per day. With this approach the patient's ocular inflammation and IOP improved and surgery was postponed, but the patient still required topical corticosteroids and topical anti-hypertensive medications. After 3 years of controlled inflammation on valganciclovir eye drops, the patient became concerned about medication stability and began formulating 1% valganciclovir ointment in an oleaginous base (80% white petrolatum and 20% mineral oil). […] With long-term use of topical valganciclovir ointment, the patient was able to taper off topical corticosteroids and topical anti-hypertensives and has remained stable since then (9 months).

CC(C)[C@H](N)C(=O)OCC(CO)OCn1cnc2c(=O)nc(N)[nH]c21 (stereo partly drawn) [valganciclovir, valganciclovir hydrochloride]
control of the inflammation and lowering of the intraocular pressure [1]: effectiveness | ocular inflammation and intraocular pressure ([2]; oral valganciclovir together with topical corticosteroids): ocular inflammation resolved and intraocular pressure normalized | disease status after dose reduction ([2]; oral, 450 mg twice daily): the disease remained quiet | leukopenia (complete blood counts tested periodically) ([2]; oral, 900 mg twice daily): no leukopenia developed | time until IOP returned to normal levels ([2]; oral, 900 mg twice daily): six | time until all keratic precipitates completely resolved ([2]; oral, 900 mg twice daily): 3 months
